The values that follow come from US20230086702A1, “SUBSTITUTED 2-AMINO-PYRAZOLYL-[1,2,4]TRIAZOLO[1,5A]PYRIDINE DERIVATIVES AND USE THEREOF” (The Johns Hopkins University, priority 2019, published 2023).

One experiment has as its target T1, LZK (Homo sapiens, UniProt O43283).
T1 construct: 10 nM LZK, catalytic domain, Carna Biosiences in assay buffer; purchased Carna Biosciences ('Carna Biosiences' [sic])
T1 sequence (O43283 168-409 limits assumed): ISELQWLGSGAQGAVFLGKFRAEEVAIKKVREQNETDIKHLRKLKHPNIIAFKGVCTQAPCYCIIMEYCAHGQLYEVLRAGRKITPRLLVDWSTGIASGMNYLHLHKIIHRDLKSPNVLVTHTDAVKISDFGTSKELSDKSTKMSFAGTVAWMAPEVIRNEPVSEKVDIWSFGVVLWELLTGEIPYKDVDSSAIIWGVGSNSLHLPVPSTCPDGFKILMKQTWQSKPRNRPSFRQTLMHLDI
Nature of the experiment: LZK biochemical assay (TR-FRET, MKK7 phosphorylation). In short, it runs like this: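 Read-out is HTRF: Eu-labelled anti-phospho-MKK7 (T275/S277) and XL665 anti-His, incubated 16 h at 32 °C, with a drop in signal marking inhibition. Reaction beforehand: 10 nM LZK kinase domain, 15 nM His-MKK7, 15 µM ATP (final) for 90 min at room temperature, pH 7.5.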
(Time-resolved FRET reads energy transfer from a long-lived donor to a nearby acceptor.)

Another experiment deals with T2, DLK (Homo sapiens, UniProt Q12852).
T2 construct: 10 nM DLK, catalytic domain, Carna Biosiences; purchased Carna Biosciences ('Carna Biosiences' [sic])
T2 sequence (Q12852 125-366 limits assumed): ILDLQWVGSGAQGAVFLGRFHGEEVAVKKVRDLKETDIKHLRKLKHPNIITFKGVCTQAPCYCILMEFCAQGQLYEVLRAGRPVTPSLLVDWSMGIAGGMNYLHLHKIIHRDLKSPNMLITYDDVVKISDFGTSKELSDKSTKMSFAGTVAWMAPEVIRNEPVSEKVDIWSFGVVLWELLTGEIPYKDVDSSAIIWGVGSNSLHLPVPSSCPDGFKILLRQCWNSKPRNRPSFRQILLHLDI
Nature of the experiment: DLK biochemical assay (TR-FRET, MKK7 phosphorylation). The gist of the method: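 TR-FRET read-out (665/Eu ratio) of MKK7 T275/S277 phosphorylation, with inhibition lowering the signal. Final conditions: 10 nM DLK catalytic domain, 15 nM MKK7, 60 μM ATP, 90 min at RT. Detection incubation 16 h at 37° C in 1536-well or 4° C in 384-well format.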

pIC50: −log10 of the molar value.

By pIC50 is commonly meant the negative decadic logarithm of the IC50, by convention in mol/L. The low end stands for a large IC50, the high end for a small IC50. As for `CC[C@@H](c1ccccc1)n1cc(-c2cc(-c3cnn(C4CC4)c3)c3nc(N)nn3c2)cn1` [II-92, 8-(1-Cyclopropyl-1H-pyrazol-4-yl)-6-{1-[(1S)-1-phenylpropyl]-1H-pyrazol-4-yl}[1,2,4]triazolo[1,5-a]pyridin-2-amine], the pIC50 against LZK was 6.82; against DLK it was 8.17.

`CCC(c1ccc(C(F)(F)F)nc1)n1cc(-c2cc(-c3cccc(C(C)(C)O)c3)c3nc(N)nn3c2)cn1` (single isomer, unassigned) [II-8, 2-{3-[2-Amino-6-(1-{1-[6-(trifluoromethyl)pyridin-3-yl]propyl}-1H-pyrazol-4-yl)[1,2,4]triazolo[1,5-a]pyridin-8-yl]phenyl}propan-2-ol]: the pIC50 is 8.10 on LZK and 8.43 against DLK.

Regarding `Nc1nc2cc(-c3cnn(C(c4ccccc4)C4CCOCC4)c3)cc(-c3cnn(CC(F)(F)F)c3)n2n1` (single isomer, unassigned) [II-148, 7-{1-[Phenyl(tetrahydro-2H-pyran-4-yl)methyl]-1H-pyrazol-4-yl}-5-[1-(2,2,2-trifluoroethyl)-1H-pyrazol-4-yl][1,2,4]triazolo[1,5-a]pyridin-2-amine], the negative logarithm of the IC50 (pIC50) against LZK was 6.77; against DLK it was 7.66.

In the case of `Nc1nc2c(-c3ccc(=O)n(CC(F)(F)F)c3)cc(-c3cnn(C(c4ccc(C(F)(F)F)nc4)C4CCOCC4)c3)cn2n1` (single isomer, unassigned) [II-161, 5-[2-Amino-6-(1-{tetrahydro-2H-pyran-4-yl[6-(trifluoromethyl)pyridin-3-yl]methyl}-1H-pyrazol-4-yl)[1,2,4]triazolo[1,5-a]pyridin-8-yl]-1-(2,2,2-trifluoroethyl)pyridin-2(1H)-one], the negative-log IC50 (pIC50) at LZK was 7.92; at DLK, 8.07.

On to `CCC(c1ccc(C(F)(F)F)nc1)n1cc(-c2cc(-c3cccc(C(C)(C)O)c3)c3nc(N)nn3c2)cn1` (single isomer, unassigned) [II-9, 2-{3-[2-Amino-6-(1-{1-[6-(trifluoromethyl)pyridin-3-yl]propyl}-1H-pyrazol-4-yl)[1,2,4]triazolo[1,5-a]pyridin-8-yl]phenyl}propan-2-ol], for which the results for the pIC50 against LZK and against DLK were 8.64 and 9.00, respectively.

In the case of `Nc1nc2cc(-c3cnn(C(c4ccccc4)C4CCOCC4)c3)cc(-c3cnn(CC(F)(F)F)c3)n2n1` (single isomer, unassigned) [II-147, 7-{1-[Phenyl(tetrahydro-2H-pyran-4-yl)methyl]-1H-pyrazol-4-yl}-5-[1-(2,2,2-trifluoroethyl)-1H-pyrazol-4-yl][1,2,4]triazolo[1,5-a]pyridin-2-amine], the negative-log IC50 (pIC50) against LZK was 7.14; against DLK, 8.64.

Turning to `Nc1nc2c(-c3ccc(=O)n(C(F)F)c3)cc(-c3cnn(C(c4ccc(C(F)(F)F)nc4)C4CCOCC4)c3)cn2n1` (single isomer, unassigned) [II-154, 5-[2-Amino-6-(1-{tetrahydro-2H-pyran-4-yl[6-(trifluoromethyl)pyridin-3-yl]methyl}-1H-pyrazol-4-yl)[1,2,4]triazolo[1,5-a]pyridin-8-yl]-1-(difluoromethyl)pyridin-2(1H)-one], the pIC50 against LZK is 7.82; at DLK, 8.21.

Consider `Nc1nc2c(-c3ccn(CC(F)F)c(=O)c3)cc(-c3cnn(C(c4ccc(C(F)(F)F)nc4)C4CCOCC4)c3)cn2n1` (single isomer, unassigned) [II-173, 4-[2-Amino-6-(1-{tetrahydro-2H-pyran-4-yl[6-(trifluoromethyl)pyridin-3-yl]methyl}-1H-pyrazol-4-yl)[1,2,4]triazolo[1,5-a]pyridin-8-yl]-1-(2,2-difluoroethyl)pyridin-2(1H)-one], for which the pIC50 against LZK is 7.60; at DLK it was 7.96.

As to `CC(C)[C@@H](c1ccc(C(F)(F)F)nc1)n1cc(-c2cc(-c3cnn(CC(F)(F)F)c3)n3nc(N)nc3c2)cn1` [II-140], the pIC50 on LZK is 7.89; against DLK, 8.52.

Regarding `Nc1nc2cc(-c3cnn(C(c4ccc(C(F)(F)F)nc4)C4CCOCC4)c3)cc(-c3ccnc(C(F)(F)F)c3)n2n1` (single isomer, unassigned) [II-35, 7-(1-{Tetrahydro-2H-pyran-4-yl[6-(trifluoromethyl)pyridin-3-yl]methyl}-1H-pyrazol-4-yl)-5-[2-(trifluoromethyl)pyridin-4-yl][1,2,4]triazolo[1,5-a]pyridin-2-amine], the negative-log IC50 (pIC50) against LZK is 7.36; on DLK it was 7.20.

As for `CC(C)C(c1ccc(C(F)F)nc1)n1cc(-c2cc(-c3ccc(C(F)(F)F)nc3)n3nc(N)nc3c2)cn1` (single isomer, unassigned) [II-66, 7-(1-{1-[6-(Difluoromethyl)pyridin-3-yl]-2-methylpropyl}-1H-pyrazol-4-yl)-5-[6-(trifluoromethyl)pyridin-3-yl][1,2,4]triazolo[1,5-a]pyridin-2-amine], the pIC50 at LZK is 7.37; on DLK, 7.35.

On to `CCC(c1ccc(C(F)F)nc1)n1cc(-c2cc(-c3ccc(C(F)(F)F)nc3)n3nc(N)nc3c2)cn1` (racemic) [II-61, 7-(1-{1-[6-(Difluoromethyl)pyridin-3-yl]propyl}-1H-pyrazol-4-yl)-5-[6-(trifluoromethyl)pyridin-3-yl][1,2,4]triazolo[1,5-a]pyridin-2-amine], for which the pIC50 against LZK is 7.21; against DLK, 7.19.

Take `CC(C)C(c1ccc(C(F)F)nc1)n1cc(-c2cc(-c3ccc(C(F)(F)F)nc3)n3nc(N)nc3c2)cn1` (single isomer, unassigned) [II-65, 7-(1-{1-[6-(Difluoromethyl)pyridin-3-yl]-2-methylpropyl}-1H-pyrazol-4-yl)-5-[6-(trifluoromethyl)pyridin-3-yl][1,2,4]triazolo[1,5-a]pyridin-2-amine]: the pIC50 against LZK is 6.68; against DLK, 6.36.

As for `CC[C@@H](c1ccccc1)n1cc(-c2cc(-c3cnn(CCO)c3)c3nc(N)nn3c2)cn1` [II-97, 2-[4-(2-Amino-6-{1-[(1S)-1-phenylpropyl]-1H-pyrazol-4-yl}[1,2,4]triazolo[1,5-a]pyridin-8-yl)-1H-pyrazol-1-yl]ethan-1-ol], the pIC50 is 6.42 on LZK and 8.09 against DLK.

Regarding `Nc1nc2cc(-c3cnn(C(c4ccc(C(F)(F)F)nc4)C4CCOCC4)c3)cc(-c3ccc(=O)n(CC(F)(F)F)c3)n2n1` (single isomer, unassigned) [II-192, 5-[2-Amino-7-(1-{tetrahydro-2H-pyran-4-yl[6-(trifluoromethyl)pyridin-3-yl]methyl}-1H-pyrazol-4-yl)[1,2,4]triazolo[1,5-a]pyridin-5-yl]-1-(2,2,2-trifluoroethyl)pyridin-2(1H)-one], the pIC50 against LZK was 8.66; against DLK it was 8.89.

With `CCC(c1ccc(C(F)(F)F)nc1)n1cc(-c2cc(-c3ccc(C(F)(F)F)nc3)c3nc(N)nn3c2)cn1` (racemic) [II-37, 8-[6-(Trifluoromethyl)pyridin-3-yl]-6-(1-{1-[6-(trifluoromethyl)pyridin-3-yl]propyl}-1H-pyrazol-4-yl)[1,2,4]triazolo[1,5-a]pyridin-2-amine], the pIC50 against LZK is 7.13; against DLK it was 7.34.

As for `CCC(c1ccc(C(F)(F)F)nc1)n1cc(-c2cc(-c3cnn(CC(F)F)c3)c3nc(N)nn3c2)cn1` (single isomer, unassigned) [II-110, 8-[1-(2,2-Difluoroethyl)-1H-pyrazol-4-yl]-6-(1-{1-[6-(trifluoromethyl)pyridin-3-yl]propyl}-1H-pyrazol-4-yl)[1,2,4]triazolo[1,5-a]pyridin-2-amine], the pIC50 was 8.01 against LZK and 8.66 against DLK.

As to `CCC(c1ccc(C(F)(F)F)nc1)n1cc(-c2cc(-c3ccnc(C4(F)CC4)c3)n3nc(N)nc3c2)cn1` (single isomer, unassigned) [II-32, 5-[2-(1-Fluorocyclopropyl)pyridin-4-yl]-7-(1-{1-[6-(trifluoromethyl)pyridin-3-yl]propyl}-1H-pyrazol-4-yl)[1,2,4]triazolo[1,5-a]pyridin-2-amine], the pIC50 was 7.80 at LZK and 7.18 at DLK.

Consider `CCC(c1ccc(C(F)(F)F)cc1)n1cc(-c2cc(-c3cnn(C4CCCC4)c3)n3nc(N)nc3c2)cn1` (single isomer, unassigned) [II-134, 5-(1-Cyclopentyl-1H-pyrazol-4-yl)-7-(1-{1-[4-(trifluoromethyl)phenyl]propyl}-1H-pyrazol-4-yl)[1,2,4]triazolo[1,5-a]pyridin-2-amine], for which the results for the pIC50 against LZK and at DLK were 7.36 and 7.49, respectively.

As to `Nc1nc2cc(-c3cnn(C(c4ccc(C(F)(F)F)nc4)C4CCOCC4)c3)cc(-c3ccnc(C(F)(F)F)c3)n2n1` (single isomer, unassigned) [II-36, 7-(1-{Tetrahydro-2H-pyran-4-yl[6-(trifluoromethyl)pyridin-3-yl]methyl}-1H-pyrazol-4-yl)-5-[2-(trifluoromethyl)pyridin-4-yl][1,2,4]triazolo[1,5-a]pyridin-2-amine], the pIC50 at LZK is 8.10; on DLK it was 8.20.
